In patent US6528528B2 (Warner-Lambert Company, priority 1997, dated 2003):

Tests used:
[1] = biological target: T1, rabbit reticulocyte 15-LO (Oryctolagus cuniculus, UniProt P12530); assay: Rabbit Reticulocyte 15-LO Assay (h15LO); format: biochemical; settings: Table 2; 2U rabbit reticulocyte 15-LO, 174 μM linoleic acid, 15 minutes at 4° C.
T1 construct: Fifteen-lipoxygenase was obtained from phenylhydrazine-treated rabbits and purified per the method of Rapoport; from tissue; host or cells: reticulocytes of phenylhydrazine-treated rabbits
T1 sequence (P12530 1-663): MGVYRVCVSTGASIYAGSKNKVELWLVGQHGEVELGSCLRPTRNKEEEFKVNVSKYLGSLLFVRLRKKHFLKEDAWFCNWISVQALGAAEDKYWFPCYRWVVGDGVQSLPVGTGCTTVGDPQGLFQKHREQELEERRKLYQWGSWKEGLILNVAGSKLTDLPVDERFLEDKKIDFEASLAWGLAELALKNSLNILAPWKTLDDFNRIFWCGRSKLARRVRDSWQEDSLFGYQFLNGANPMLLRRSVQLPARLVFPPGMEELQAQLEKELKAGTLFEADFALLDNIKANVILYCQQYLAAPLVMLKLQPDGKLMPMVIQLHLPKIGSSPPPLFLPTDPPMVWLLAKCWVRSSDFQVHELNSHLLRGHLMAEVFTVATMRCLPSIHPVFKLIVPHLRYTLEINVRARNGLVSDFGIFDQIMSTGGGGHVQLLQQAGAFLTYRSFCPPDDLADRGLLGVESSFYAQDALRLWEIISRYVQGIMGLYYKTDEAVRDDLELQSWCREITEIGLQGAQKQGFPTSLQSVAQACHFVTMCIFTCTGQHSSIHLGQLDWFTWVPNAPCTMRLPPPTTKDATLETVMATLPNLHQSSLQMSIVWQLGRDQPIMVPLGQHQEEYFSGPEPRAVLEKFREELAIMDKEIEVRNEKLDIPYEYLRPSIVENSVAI
Summary of the method: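 Linoleic acid oxidation to 13-HPODE measured at 4° C. over 15 minutes, using 174 μM substrate and 2U enzyme purified from phenylhydrazine-treated rabbits in PBS/0.2% Na cholate. Product peak areas calibrated with authentic 13-HODE; inhibition expressed versus maximal reaction.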

[2] = system: monocytes; assay: Monocyte Recruitment Assay (chemotaxis of monocytes); format: cell-based; settings: Table 3; for EC50: Monocyte, read-out: Monocyte Recruitment Assay ED50
Procedure: Monocyte Recruitment Assay
The recruitment or chemotaxis of monocytes was assayed by methods well known to those skilled in the art. In particular, the method set forth in J. Clin. Invest., 1988;82:1853-1863, which is hereby incorporated by reference, was used.

[3] = system: Rabbits fed a 0.25% cholesterol, 3% peanut oil, 3% coconut oil diet; assay: In vivo tests: aortic atherosclerotic lesions in rabbits fed a cholesterol diet; settings: 10 mg/kg as diet admix, 12 weeks
Procedure: The entire descending thoracic aorta was assayed for its cholesteryl ester (CE), free cholesterol phospholipid content. The lipids were extracted in chloroform:methanol (2:1) by the procedure of Folch, et al. (Folch J., Lees M., Sloane-Stanley G. H. A simple method for the isolation and purification of total lipids from animal tissue, J. Biol. Chem., 1957;226:497-509) and 300-500 μL of an internal standard, i.e., 200 mg/ml solution of 4-hydroxy-cholesterol in ethyl acetate:acetone (2:1), was added to the extracts of the thoracic aortic samples. After extraction, the organic phase was dried under nitrogen and redissolved in isooctane/tetrahydro-furan (97:3). The lipid content and composition of the thoracic aorta were measured using an HPLC method.
For histologic evaluation of the aortic arch lesions and for quantification of aortic arch cross-sectional lesion area, a 1 cm segment of the ascending aorta distal to the aortic valves was fixed in 10% neutral buffered formalin for 24 hours. The vessels were dehydrated, cleared in xylene, and infiltrated with molten paraffin (<60° C.) using a Tissue Tek VIP autoprocessor (Miles Scientific, Elkhart, Ind.). The tissue segments were embedded in paraffin and sectioned at 5 μm with a Reichert-Jung microtome (Baxter, McGraw Park, Ill.). In order to obtain a thorough representation of the histologic appearance of the aortic arch lesions, 3 ribbons of 20 sections each were cut. Each ribbon of sections was spaced approximately 100 μm apart. Three pairs of sections, i.e., 1 pair from each ribbon, were affixed to cleaned 3-aminopropyltriethoxy-silane coated glass slides and stored until stained. The general histologic character was evaluated in Verhoeff's elastica stained sections.
The gross extent of atherosclerosis within the aortic arch was measured. In addition, sections of the aortic arch, a site of hypercholesterolemia-induced lesions, stained using the Verhoeff's elastica procedure were used for quantification of lesion cross-sectional. The internal elastic lamina (IEL) was identified as a blue-black ring and images of that region were collected using a digital camera. The area within the IEL was quantified using the Image Pro Plus image analysis software. The area of the lumen of the aortic arch was also quantified in a similar fashion. Lesion area was defined as the difference between the area circumscribed by the internal elastic lamina and the lumen area.
Aortic arch lesion extent was also measured. The area distal to the 1 cm segment taken for histologic evaluation to the first intercostal ostia was removed from the animal, opened longitudinally and images of the surface of the vessel was collected using a digital camera. The lesions were identified as raised, opaque areas and their area was determined using the Image Pro Plus image analysis software. The area of the entire aortic arch was also determined. The percentage of aortic arch covered by atherosclerotic lesions was calculated.

IC50 [1] [nM]	EC50 [2] [nM]	melting point [°C]	Structure (SMILES)	Aortic Arch Cross-Sectional Lesion Area (% Δ from Control) [3]	Aortic Arch Lesion Extent (% Δ from Control) [3]	Aortic Cholesteryl Ester Content (% Δ from Control) [3]	Monocyte Recruitment Assay % @ 30 μM ([2]; @ 30 μM) [% @ 30 μM]
8.6	17600	195 to 197	COc1ccc(C(=O)Nc2ccccc2)cc1NC(=S)Nc1cc(Cl)cc(Cl)c1 [Example 60, 3-[3-(3,5-Dichlorophenyl)-thioureido]-4-methoxy-N-phenyl-benzamide]	+84 % Δ from Control	+40 % Δ from Control	+59 % Δ from Control	
7		188 to 189	COc1ccc(C(=O)Nc2ccccc2)cc1NC(=S)Nc1cccc([N+](=O)[O-])c1 [Example 66, 3-[3-(3-Nitrophenyl)-thioureido]-4-methoxy-N-phenyl-benzamide]				38
42	2300	170 to 174	COc1ccc(C(=O)Nc2ccccc2)cc1NC(=S)Nc1c(F)c(F)cc(F)c1F [Example 68, 4-Methoxy-N-phenyl-3-[3-(2,3,5,6-tetrafluoro-phenyl)-thioureido]-benzamide]				
